Values of other authors in article PMC4019989 (Clinical cancer research : an official journal of the …, 2009).

System: animals
Conditions: cited from earlier work

SMILES: CC(C)C[C@H](NC(=O)[C@H](Cc1ccccc1)NC(=O)c1cnccn1)B(O)O [bortezomib]
- Toxicity of consecutive-day dosing: excessive toxicity
